Here are results for 58 compounds from US20050154230A1, “Urea derivatives” (Bayer HealthCare AG, priority 2001, published 2005).

The target of series [1] is T1, human VR1 (Homo sapiens, UniProt Q8NER1).
T1 construct: expressed in transfected cells
Kind of series: Capsaicin-induced Ca2+ influx in the human VR1-transfected CHO cell line (Assay 1). The format is cell-based. Conditions: human VR1-CHOluc9aeq cells, 10 nM capsaicin; compound purity about 40 to 90%; read-out: hVR1 class. In a few lines:
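CHO cells expressing human VR1 with an aequorin reporter were treated with compound or vehicle for 20 min at 25° C. Capsaicin-induced Ca^2+ influx was then measured on an FDSS-3000. Integral R was calculated and compared with controls.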

T1 sequence (Q8NER1 whole entry): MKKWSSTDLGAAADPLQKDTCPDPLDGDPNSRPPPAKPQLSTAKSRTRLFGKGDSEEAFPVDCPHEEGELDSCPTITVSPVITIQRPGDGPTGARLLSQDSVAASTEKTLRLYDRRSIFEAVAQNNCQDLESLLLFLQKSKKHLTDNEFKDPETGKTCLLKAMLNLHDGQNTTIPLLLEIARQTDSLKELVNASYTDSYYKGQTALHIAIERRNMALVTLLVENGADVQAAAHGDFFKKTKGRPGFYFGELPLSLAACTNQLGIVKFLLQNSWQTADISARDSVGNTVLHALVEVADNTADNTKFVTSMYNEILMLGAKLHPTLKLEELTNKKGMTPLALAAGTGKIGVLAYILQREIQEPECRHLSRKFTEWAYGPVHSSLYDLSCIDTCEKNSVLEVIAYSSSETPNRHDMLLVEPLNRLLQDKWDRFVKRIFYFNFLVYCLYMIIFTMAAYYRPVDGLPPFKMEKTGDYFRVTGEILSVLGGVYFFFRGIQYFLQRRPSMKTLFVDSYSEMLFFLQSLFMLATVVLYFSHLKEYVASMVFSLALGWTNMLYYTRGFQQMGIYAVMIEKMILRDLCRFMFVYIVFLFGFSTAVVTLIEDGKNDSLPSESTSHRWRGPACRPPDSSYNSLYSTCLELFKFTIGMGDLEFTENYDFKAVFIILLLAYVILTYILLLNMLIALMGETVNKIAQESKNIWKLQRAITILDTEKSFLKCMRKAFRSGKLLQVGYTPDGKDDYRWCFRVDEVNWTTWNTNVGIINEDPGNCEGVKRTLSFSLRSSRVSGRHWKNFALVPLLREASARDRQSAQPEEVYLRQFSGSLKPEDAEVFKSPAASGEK

`O=C(Nc1cccc(-c2cccc(Cl)c2)c1)Nc1ccccc1CCO` [Example 195] showed a melting point of 175 °C. The IC50 in series [1] is under 0.1 µM.
In the same order, the values of `O=C(Nc1cccc(-c2ccccc2Cl)c1)Nc1ccccc1CCO` [Example 196] are 153 °C and under 0.1 µM.
The corresponding values for `Cc1ccc(C)c(-c2cccc(NC(=O)Nc3ccccc3CCO)c2)c1` [Example 197] are 167 °C and under 0.1 µM.
In the same order, the values of `COc1ccc(OC)c(-c2cccc(NC(=O)Nc3ccccc3CCO)c2)c1` [Example 198] are 170 °C and 0.1 to 0.5 µM.
Take `O=C(Nc1cccc(-c2ccc(F)cc2F)c1)Nc1ccccc1CCO` [Example 199]: the melting point came to 169 °C. Further, the IC50 in series [1] is under 0.1 µM.
The corresponding values for `Cc1ccc(-c2cccc(NC(=O)Nc3ccccc3CCO)c2)cc1` [Example 200] are 178 °C and under 0.1 µM.
In the same order, the values of `O=C(Nc1ccc(-c2ccccc2)cc1)Nc1ccccc1CCO` [Example 201] are 194 °C and 0.1 to 0.5 µM.
The corresponding values for `O=C(Nc1ccc(Cl)c(-c2ccccc2)c1)Nc1ccccc1CCO` [Example 202] are 185 °C and 0.1 to 0.5 µM.
For the compound `O=C(Nc1cccc(-c2cccs2)c1)Nc1ccccc1CCO` [Example 203], the melting point came to 195 °C. In series [1], the IC50 is under 0.1 µM.
The corresponding values for `COc1ccc(-c2cccc(NC(=O)Nc3ccccc3CCO)c2)cc1` [Example 204] are 166 °C and under 0.1 µM.
`COc1ccccc1-c1cccc(NC(=O)Nc2ccccc2CCO)c1` [Example 205]: the melting point turned out to be 130 °C. The IC50 in series [1] lay within 0.1 to 0.5 µM.
In the same order, the values of `CSc1ccc(-c2cccc(NC(=O)Nc3ccccc3CCO)c2)cc1` [Example 206] are 191 °C and under 0.1 µM.
In the same order, the values of `O=C(Nc1cccc(-c2ccc(F)c(F)c2)c1)Nc1ccccc1CCO` [Example 207] are 181 °C and under 0.1 µM.
Compound `O=C(Nc1cccc(-c2cc(F)cc(F)c2)c1)Nc1ccccc1CCO` [Example 208] came in with a melting point of 169 °C. The IC50 in series [1] is under 0.1 µM.
In turn, `O=C(Nc1cccc(-c2cc(Cl)ccc2Cl)c1)Nc1ccccc1CCO` [Example 209] came in with a melting point of 142 °C. In addition, in series [1], the IC50 is under 0.1 µM.
As to `O=C(Nc1cccc(-c2ccccc2F)c1)Nc1ccccc1CCO` [Example 210], the melting point was 171 to 172 °C. In addition, in series [1], the IC50 was under 0.1 µM.
The corresponding values for `O=C(Nc1cccc(-c2cccc(F)c2)c1)Nc1ccccc1CCO` [Example 211] are 188 °C and under 0.1 µM.
In the same order, the values of `O=C(Nc1cccc(-c2cccnc2)c1)Nc1ccccc1CCO` [Example 212] are 178.9 °C and 0.5 to 1 µM.
The corresponding values for `O=C(Nc1cccc(-c2cc(F)ccc2F)c1)Nc1ccccc1CCO` [Example 213] are 150 °C and under 0.1 µM.
For the compound `O=C(Nc1cccc(-c2cccc3ccccc23)c1)Nc1ccccc1CCO` [Example 214], the melting point was 113 °C. For the same compound, the IC50 in series [1] was under 0.1 µM.
In the same order, the values of `O=C(Nc1cccc(-c2ccc(F)c(Cl)c2)c1)Nc1ccccc1CCO` [Example 215] are 176 °C and under 0.1 µM.
For `O=C(Nc1cccc(-c2ccc(Cl)c(Cl)c2)c1)Nc1ccccc1CCO` [Example 216], the melting point stood at 180 °C. Besides, in series [1], the IC50 is under 0.1 µM.
The corresponding values for `O=C(Nc1cccc(-c2cc(Cl)cc(Cl)c2)c1)Nc1ccccc1CCO` [Example 217] are 184 °C and under 0.1 µM.
The corresponding values for `O=C(Nc1ccc(Cl)c(-c2ccc(Cl)cc2)c1)Nc1ccccc1CCO` [Example 218] are 170 to 172 °C and under 0.1 µM.
In the same order, the values of `COc1ccc(NC(=O)Nc2ccccc2CCO)cc1OC` [Example 219] are 186 to 187 °C and 0.5 to 1 µM.
`O=C(Nc1ccc2c(c1)OCO2)Nc1ccccc1CCO` [Example 220] came in with a melting point of 183 to 184 °C. The IC50 in series [1] lay in the range of 0.5 to 1 µM.
In the same order, the values of `O=C(Nc1ccc2[nH]ncc2c1)Nc1ccccc1CCO` [Example 221] are 234 to 236 °C and 0.5 to 1 µM.
The compound `O=C(Nc1cccc(-c2ccc(C(F)(F)F)cc2)c1)Nc1ccccc1CCO` [Example 222] returned a melting point of 198 °C. For the same compound, the IC50 in series [1] is under 0.1 µM.
The corresponding values for `O=C(Nc1cccc(-c2ccc(Cl)cc2Cl)c1)Nc1ccccc1CCO` [Example 223] are 166 °C and under 0.1 µM.
With `CC(=O)c1ccc(-c2cccc(NC(=O)Nc3ccccc3CCO)c2)cc1` [Example 224], the melting point was 205 °C. Further, the IC50 in series [1] is under 0.1 µM.
`CCOC(=O)c1ccc(-c2cccc(NC(=O)Nc3ccccc3CCO)c2)cc1` [Example 225] yielded a melting point of 196 °C. Also, in series [1], the IC50 is under 0.1 µM.
With `CCOC(=O)c1cccc(-c2cccc(NC(=O)Nc3ccccc3CCO)c2)c1` [Example 226], the melting point came to 133 °C. The IC50 in series [1] was under 0.1 µM.
The corresponding values for `COc1ccc(Cl)cc1-c1cccc(NC(=O)Nc2ccccc2CCO)c1` [Example 227] are 141 to 143 °C and under 0.1 µM.
In the same order, the values of `COc1ccc(Cl)cc1-c1cccc(NC(=O)Nc2ccccc2CCO)c1` [Example 228] are 126 to 129 °C and under 0.1 µM.
The corresponding values for `O=C(Nc1cccc(-c2ccc([N+](=O)[O-])cc2)c1)Nc1ccccc1CCO` [Example 229] are 197 to 198 °C and under 0.1 µM.
The compound `N#Cc1ccc(-c2cccc(NC(=O)Nc3ccccc3CCO)c2)cc1` [Example 230] came in with a melting point of 180 to 182 °C. For the same compound, the IC50 in series [1] was under 0.1 µM.
In the same order, the values of `COc1cccc(OC)c1-c1cccc(NC(=O)Nc2ccccc2CCO)c1` [Example 231] are 180 to 181 °C and 0.5 to 1 µM.
In the same order, the values of `N#Cc1cccc(-c2cccc(NC(=O)Nc3ccccc3CCO)c2)c1` [Example 232] are 186 to 187 °C and under 0.1 µM.
As for `O=C(Nc1cccc(-c2ccccc2Cl)c1)Nc1cc(C(F)(F)F)ccc1CCO` [Example 233], the melting point was 185 to 187 °C. In addition, the IC50 in series [1] is 0.1 to 0.5 µM.
As to `O=C(Nc1cccc(-c2cccc([N+](=O)[O-])c2)c1)Nc1ccccc1CCO` [Example 234], the melting point is 188 °C. In addition, the IC50 in series [1] is under 0.1 µM.
In the same order, the values of `COc1ccc(F)cc1-c1cccc(NC(=O)Nc2ccccc2CCO)c1` [Example 235] are 158 to 160 °C and under 0.1 µM.
The corresponding values for `O=C(Nc1cccc(-c2ccc(OCc3ccccc3)c(F)c2)c1)Nc1ccccc1CCO` [Example 236] are 181 to 182 °C and under 0.1 µM.
The compound `COc1cc(-c2cccc(NC(=O)Nc3ccccc3CCO)c2)cc(OC)c1OC` [Example 237] gave a melting point of 81 to 83 °C. Besides, in series [1], the IC50 was in the range of 0.1 to 0.5 µM.
For the compound `O=C(Nc1cccc(-c2cccc(C(F)(F)F)c2)c1)Nc1ccccc1CCO` [Example 238], the melting point turned out to be 180 °C. In addition, the IC50 in series [1] was under 0.1 µM.
The corresponding values for `O=C(Nc1cccc(-c2cccc(OC(F)(F)F)c2)c1)Nc1ccccc1CCO` [Example 239] are 166 °C and under 0.1 µM.
In the same order, the values of `O=C(Nc1cccc(-c2ccc(OC(F)(F)F)cc2)c1)Nc1ccccc1CCO` [Example 240] are 184 °C and under 0.1 µM.
`O=C(Nc1cccc(-c2ccccc2C(F)(F)F)c1)Nc1ccccc1CCO` [Example 241]: the melting point was 153 °C. In series [1], the IC50 was under 0.1 µM.
In the same order, the values of `COc1cccc(-c2cccc(NC(=O)Nc3ccccc3CCO)c2)c1` [Example 242] are 163 °C and under 0.1 µM.
Compound `O=C(Nc1ccc(-c2ccccc2)s1)Nc1ccccc1CCO` [Example 243] registered a melting point of 159 °C. The IC50 in series [1] was under 0.1 µM.
The corresponding values for `O=C(Nc1ccc(-c2ccccc2)c(Cl)c1)Nc1ccccc1CCO` [Example 244] are 178 °C and 0.1 to 0.5 µM.
The corresponding values for `O=C(Nc1cccc(-c2ccccc2Cl)c1)Nc1ccc(Cl)cc1CCO` [Example 245] are 191 to 193 °C and 0.1 to 0.5 µM.
The corresponding values for `O=C(Nc1cccc(-c2ccc(Cl)cc2)c1)Nc1ccc(Cl)cc1CCO` [Example 246] are 209 to 211 °C and 0.5 to 1 µM.
For the compound `O=C(Nc1cccc(-c2ccoc2)c1)Nc1ccccc1CCO` [Example 247], the melting point is 190 °C. The IC50 in series [1] is under 0.1 µM.
Regarding `Cc1ccc(-c2cccc(NC(=O)Nc3ccccc3CCO)c2)cc1Cl` [Example 248], the melting point stood at 194 °C. Besides, the IC50 in series [1] was under 0.1 µM.
In turn, `O=C(Nc1cccc(-c2ccc(Cl)c(F)c2)c1)Nc1ccccc1CCO` [Example 249] came in with a melting point of 180 °C. The IC50 in series [1] is under 0.1 µM.
As for `O=C(Nc1ccccc1CCO)Nc1cccc2c1Cc1ccccc1-2` [Example 253], the melting point lay in the range of 182 to 183 °C. The IC50 in series [1] was under 0.1 µM.
The corresponding values for `O=C(Nc1ccc(Cl)c(C(F)(F)F)c1)Nc1cccc(C(F)(F)F)c1CCO` [Example 254] are 201 °C and 0.1 to 0.5 µM.
With `O=C(Nc1ccc(Cl)c(C(F)(F)F)c1)Nc1cccc(Br)c1CCO` [Example 255], the melting point was 209 °C. Besides, the IC50 in series [1] is under 0.1 µM.

By melting point is commonly meant the temperature of the solid-liquid transition.
